Experimental data published in US20250326794A1, “ANTI-CANCER LEUCINE-RICH PEPTIDES AND USES THEREOF” (KING'S COLLEGE LONDON, priority 2019, published 2025).
Like-named read-outs stand apart in the source and are kept apart here.

Columns and labels:
[1] = tested on: HMLER-shEcad cells; test: HMLER-shEcad viability with co-incubated necroptosis/apoptosis inhibitors; format: cell-based, human; details: 20 μM necrostatin-1 or 5 μM z-VAD-FMK (FIG. 9C, 9D)
[2] = Tryptophan fluorescent binding assay, POPC vesicles; details: 50 μM peptide, PBS pH 7.4, lipid per peptide
Summary of the method: (§1)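 Binding followed by tryptophan emission (300-450 nm, 280 nm excitation, 3 scans averaged) after 60 min incubation of 50 μM peptide with 0-5000 μM extruded 100 nm POPC or 3:1 POPC/POPG vesicles in PBS pH 7.4. Value: lipid-to-peptide ratio at half-maximal binding.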

[3] = Tryptophan fluorescent binding assay, 3POPC/1POPG vesicles; details: 50 μM peptide, PBS pH 7.4, lipid per peptide
Summary of the method: as §1

[4] = tested on: HMLER-shEcad (human breast cancer stem cell); test: cells
Summary of the method: (§2)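 MTT viability after 72 h exposure to 0–100 μM compound (final DMSO 0.5% or 0%), 5×10^3 cells/well; HMLER lines and MCF-10A in MEGM, U2OS in DMEM with 10% FBS. A550 normalized to matching vehicle controls; IC50 interpolated from dose–response curves.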

[5] = tested on: HMLER (human breast cancer bulk cell); test: cells; details: 72 h
Summary of the method: as §2

[6] = tested on: HEK293T (human embryonic kidney cell); test: cells; details: 72 h
[7] = tested on: MCF-10A (human breast epithelial cell); test: cells; details: 72 h
Summary of the method: as §2

[8] = ANTS/DPX liposome leakage assay, 3POPC/1POPG vesicles; format: biochemical; details: for Peptide Concentration-induced 50% ANTS/DPX leakage at pH 4.8, 3POPC/1POPG Vesicle / Peptide Concentration-induced 50% ANTS/DPX leakage at pH 7.4, 3POPC/1POPG Vesicle: 0.5 mM vesicles; for Peptide Concentration-induced 50% ANTS/DPX leakage at pH 4.8, 3POPC/1POPG Vesicle: pH 4.8, lipid per peptide; for Peptide Concentration-induced 50% ANTS/DPX leakage at pH 7.4, 3POPC/1POPG Vesicle: pH 7.4, lipid per peptide; for liposome leakage activity from anionic vesicle at pH 4.8 (in words): anionic versus zwitterionic vesicle
Summary of the method: (§3)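 Peptide titrations (0–20 μM) were incubated 3 h with 0.5 mM ANTS/DPX-loaded 100 nm vesicles, either POPC alone or 3:1 POPC/POPG, at pH 7.4 or pH 4.8 in PBS. ANTS fluorescence (350/510 nm) normalized to Triton-lysed vesicles; 50%-leakage values given as lipid:peptide ratio.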

[9] = tested on: U2OS (human bone osteosarcoma); details: 72 h
Summary of the method: as §2

[10] = ANTS/DPX liposome leakage assay, POPC vesicles; format: biochemical; details: 0.5 mM vesicles; for Peptide Concentration-induced 50% ANTS/DPX leakage at pH 4.8, POPC Vesicle: pH 4.8, lipid per peptide; for Peptide Concentration-induced 50% ANTS/DPX leakage at pH 7.4, POPC Vesicle: pH 7.4, lipid per peptide
Summary of the method: as §3

[11] = tested on: HMLER-shEcad mammospheres; test: Tumoursphere formation and viability assay (TOX8); format: cell-based, human; details: for decrease in activity, two-dimensional versus mammospheres: HMLER-shEcad 2D IC50 versus mammosphere IC50

SMILES | cell viability on co-incubation with necrostatin or z-VAD-FMK [1] | Lipid Concentration-induced 50% Peptide Binding, POPC Vesicle [2] | Lipid Concentration-induced 50% Peptide Binding, 3POPC/1POPG Vesicle [3] | IC50 ([4]; 72 h) | IC50 [5] | IC50 [6] | IC50 [7] | Peptide Concentration-induced 50% ANTS/DPX leakage at pH 4.8, 3POPC/1POPG Vesicle [8] | Peptide Concentration-induced 50% ANTS/DPX leakage at pH 7.4, 3POPC/1POPG Vesicle [8] | liposome leakage activity from anionic vesicle at pH 4.8 (in words) [8] | IC50 [9] | Peptide Concentration-induced 50% ANTS/DPX leakage at pH 4.8, POPC Vesicle [10] | Peptide Concentration-induced 50% ANTS/DPX leakage at pH 7.4, POPC Vesicle [10] | decrease in activity, two-dimensional versus mammospheres [11] | IC50 ([11]; Homo sapiens, read-out: IC50 in mammospheres) | IC50 ([4]; Homo sapiens, 72 h, read-out: IC50 HMLER-shEcad) | IC50 ([4]; Homo sapiens, read-out: IC50 against two-dimensional HMLER-shEcad) | IC50 ([5]; Homo sapiens, read-out: IC50 HMLER) | IC50 ([6]; Homo sapiens, HEK-293T, read-out: IC50 HEK293T) | IC50 ([7]; Homo sapiens, MCF-10A, read-out: IC50 MCF-10A)
CC(C)C[C@@H](NC(=O)CN)C(=O)N[C@H](CC(C)C)C(=O)N[C@H](CCC(=O)O)C(=O)N[C@H](CC(C)C)C(=O)N[C@H](CC(C)C)C(=O)N[C@H](CCC(=O)O)C(=O)N[C@H](CC(C)C)C(=O)N[C@H](CC(C)C)C(=O)N[C@H](CC(C)C)C(=O)N[C@H](CCCCN)C(=O)N[C@H](C)C(=O)N[C@H](C)C(=O)NCC(=O)N[C@H](Cc1c[nH]c2ccccc12)C(N)=O [D-form EEK] | cannot be improved | – | – | – | – | – | – | – | – | – | – | – | – | – | – | – | – | – | – | –
CC(C)C[C@H](NC(=O)CN)C(=O)N[C@@H](CC(C)C)C(=O)N[C@@H](CC(=O)O)C(=O)N[C@@H](CC(C)C)C(=O)N[C@@H](CC(C)C)C(=O)N[C@@H](CCC(=O)O)C(=O)N[C@@H](CC(C)C)C(=O)N[C@@H](CC(C)C)C(=O)N[C@@H](CC(C)C)C(=O)N[C@@H](CCCCN)C(=O)N[C@@H](C)C(=O)N[C@@H](C)C(=O)NCC(=O)N[C@@H](Cc1c[nH]c2ccccc12)C(N)=O [DEK] | – | 1.50 L/P | 1.67 L/P | 0.7 ± 0.07 µM | 1.14 ± 0.52 µM | 6.8 ± 0.85 µM | ≥ 100 µM | 469 L/P | 773 L/P | relatively higher liposome leakage activity | 19.9 ± 2.65 µM | 10 L/P | 747 L/P | – | – | – | – | – | – | –
COc1cccc2c1C(=O)c1c(O)c3c(c(O)c1C2=O)C[C@@](O)(C(=O)CO)C[C@@H]3O[C@H]1C[C@H](N)[C@H](O)[C@H](C)O1 [Doxorubicin, doxorubicin, reference compound] | can be dramatically improved | – | – | – | – | – | – | – | – | – | – | – | – | 1,700 fold | – | – | – | – | – | –
CC(C)C[C@H](NC(=O)CN)C(=O)N[C@@H](CC(C)C)C(=O)N[C@@H](CCC(=O)O)C(=O)N[C@@H](CC(C)C)C(=O)N[C@@H](CC(C)C)C(=O)N[C@@H](CCC(=O)O)C(=O)N[C@@H](CC(C)C)C(=O)N[C@@H](CC(C)C)C(=O)N[C@@H](CC(C)C)C(=O)N[C@@H](CCC(=O)O)C(=O)N[C@@H](C)C(=O)N[C@@H](C)C(=O)NCC(=O)N[C@@H](Cc1c[nH]c2ccccc12)C(N)=O [EEE] | – | 1.33 L/P | 4.50 L/P | 10.6 ± 3.46 µM | 6.25 ± 1.77 µM | 50 µM | ≥ 100 µM | 28 L/P | 346 L/P | – | 78.8 ± 5.3 µM | 35 L/P | 143 L/P | – | – | – | – | – | – | –
CC(C)C[C@H](NC(=O)CN)C(=O)N[C@@H](CC(C)C)C(=O)N[C@@H](CCC(=O)O)C(=O)N[C@@H](CC(C)C)C(=O)N[C@@H](CC(C)C)C(=O)N[C@@H](CCC(=O)O)C(=O)N[C@@H](CC(C)C)C(=O)N[C@@H](CC(C)C)C(=O)N[C@@H](CC(C)C)C(=O)N[C@@H](Cc1c[nH]cn1)C(=O)N[C@@H](C)C(=O)N[C@@H](C)C(=O)NCC(=O)N[C@@H](Cc1c[nH]c2ccccc12)C(N)=O [EEH] | – | 0.50 L/P | 0.50 L/P | 3.6 ± 0.85 µM | 3.3 ± 0.14 µM | 12.9 ± 0.14 µM | ≥ 100 µM | 168 L/P | 755 L/P | relatively higher liposome leakage activity | 19.6 ± 3.96 µM | 58 L/P | 738 L/P | – | – | – | – | – | – | –
CC(C)C[C@H](NC(=O)CN)C(=O)N[C@@H](CC(C)C)C(=O)N[C@@H](CCC(=O)O)C(=O)N[C@@H](CC(C)C)C(=O)N[C@@H](CC(C)C)C(=O)N[C@@H](CCC(=O)O)C(=O)N[C@@H](CC(C)C)C(=O)N[C@@H](CC(C)C)C(=O)N[C@@H](CC(C)C)C(=O)N[C@@H](CCCCN)C(=O)N[C@@H](C)C(=O)N[C@@H](C)C(=O)NCC(=O)N[C@@H](Cc1c[nH]c2ccccc12)C(N)=O [EEK] | cannot be improved | 0.48 L/P | 4.50 L/P | – | – | – | – | 386 L/P | 657 L/P | relatively higher liposome leakage activity | – | 39 L/P | 730 L/P | – | – | – | – | – | – | –
CC(C)C[C@H](NC(=O)CN)C(=O)N[C@@H](CC(C)C)C(=O)N[C@@H](CCC(=O)O)C(=O)N[C@@H](CC(C)C)C(=O)N[C@@H](CC(C)C)C(=O)N[C@@H](Cc1c[nH]cn1)C(=O)N[C@@H](CC(C)C)C(=O)N[C@@H](CC(C)C)C(=O)N[C@@H](CC(C)C)C(=O)N[C@@H](CCC(=O)O)C(=O)N[C@@H](C)C(=O)N[C@@H](C)C(=O)NCC(=O)N[C@@H](Cc1c[nH]c2ccccc12)C(N)=O [EHE] | – | 0.44 L/P | 0.44 L/P | 2.55 ± 0.07 µM | 3.9 ± 0.28 µM | 13 µM | ≥ 100 µM | 384 L/P | 706 L/P | relatively higher liposome leakage activity | 18.2 ± 1.06 µM | 75 L/P | 952 L/P | – | – | – | – | – | – | –
CC(C)C[C@H](NC(=O)CN)C(=O)N[C@@H](CC(C)C)C(=O)N[C@@H](CCCCN)C(=O)N[C@@H](CC(C)C)C(=O)N[C@@H](CC(C)C)C(=O)N[C@@H](CCC(=O)O)C(=O)N[C@@H](CC(C)C)C(=O)N[C@@H](CC(C)C)C(=O)N[C@@H](CC(C)C)C(=O)N[C@@H](CCC(=O)O)C(=O)N[C@@H](C)C(=O)N[C@@H](C)C(=O)NCC(=O)N[C@@H](Cc1c[nH]c2ccccc12)C(N)=O [KEE] | – | 0.20 L/P | 0.20 L/P | 2.05 ± 0.21 µM | 3.75 ± 0.78 µM | 11.1 ± 1.84 µM | ≥ 100 µM | 108 L/P | 657 L/P | – | 49.4 ± 13.3 µM | 97 L/P | 626 L/P | – | – | – | – | – | – | –
CC(C)C[C@H](NC(=O)CN)C(=O)N[C@@H](CC(C)C)C(=O)N[C@@H](CCCCN)C(=O)N[C@@H](CC(C)C)C(=O)N[C@@H](CC(C)C)C(=O)N[C@@H](CCCCN)C(=O)N[C@@H](CC(C)C)C(=O)N[C@@H](CC(C)C)C(=O)N[C@@H](CC(C)C)C(=O)N[C@@H](CCCCN)C(=O)N[C@@H](C)C(=O)N[C@@H](C)C(=O)NCC(=O)N[C@@H](Cc1c[nH]c2ccccc12)C(N)=O [KKK] | – | 1.25 L/P | 1.70 L/P | 1.35 ± 0.4 µM | 1.57 ± 0.24 µM | 3.7 ± 0.14 µM | – | 81 L/P | 115 L/P | – | 9.65 ± 1.2 µM | 156 L/P | 1369 L/P | – | – | – | – | – | – | –
CC[C@@H](C(=O)[C@@H](C)[C@@H](O)[C@H](C)[C@@H]1O[C@@H]([C@@H](CC)C(=O)O)CC[C@@H]1C)[C@H]1O[C@]2(C=C[C@@H](O)[C@]3(CC[C@@](C)([C@H]4CC[C@](O)(CC)[C@H](C)O4)O3)O2)[C@H](C)C[C@@H]1C [Salinomycin, salinomycin, reference compound] | – | – | – | – | – | – | – | – | – | – | – | – | – | 63 fold | 22 ± 5 µM | 0.92 ± 0.28 µM | 0.37 ± 0.0005 µM | 0.37 ± 0.08 µM | 0.41 ± 0.1 µM | 9.76 ± 2.28 µM
